How the values were obtained:
[1] = system: PPC-1 spheroids (cancer cells with fibroblasts 1:1); experiment: 3D culture: PPC-1 spheroid size and viability (WST-1); type: cell-based, human; details: 5 and 10 µM, 8 days
Procedure: (§1) Spheroids were made of cancer cells combined with fibroblast in a 1:1 ratio to better represent the real tumor microenvironment.
(§2) The magnetic 3D Bioprinting method was utilized to form cancer cell spheroids as described elsewhere. In short, the cells at 70% confluency were incubated with Nanoshuttle (n3D Biosciences, Inc., Houston, TX, USA) for 8 h. After that, the cells were trypsinized, centrifuged and seeded into ultra-low attachment 96-well plate at a ratio of 1.5 × 10^3 cancer cells and 1.5 × 10^3 human fibroblasts/well. The plate was incubated for two days at 37 °C in a humidified atmosphere on a magnetic drive. Next, the medium with 5 and 10 µM of selected compounds was added. Photos of spheroids were taken every two days using an Olympus IX73 inverted microscope (OLYMPUS CORPORATION, Tokyo, Japan), and analysis of spheroid size was performed using ImageJ, version 1.53o (National Institutes of Health, Bethesda, MD, USA) and Microsoft Office Excel 2016 software (Microsoft Corporation, Redmond, WA, USA).
(§3) On the last day of experiment, 10 µL of WST-1 reagent (Sigma-Aldrich Co, St. Louis, MO, USA) was added to each well. Following 10-h incubation, 50 µL of liquid from each well was moved to another 96-well plate and the absorbance was measured at 460 and 530 nm.

[2] = system: IGR39 spheroids (cancer cells with fibroblasts 1:1); experiment: 3D culture: IGR39 spheroid size and viability (WST-1); type: cell-based, human; details: for effect on spheroid growth / size: 5 and 10 µM, 8 days
Procedure: as §1, §2, §3

[3] = system: human melanoma IGR39 cell line; experiment: MTT cell viability assay, melanoma IGR39; type: cell-based; details: for effect on cell viability compared among the cell lines: 100 µM; for effect on cell viability compared among the cell lines / EC50: 72 h, MTT; for selectivity towards cancer cells compared to fibroblasts: IGR39 (melanoma) vs fibroblasts; for EC50: Homo sapiens, IGR-39, IGR39
Excerpt: (§4) The human malignant melanoma cell line IGR39, human triple-negative breast cancer MDA-MB-231, and human pancreatic carcinoma cell line Panc-1 were obtained from the American Type Culture Collection (ATCC, Manassas, VA, USA). Human foreskin fibroblasts (HF) CRL-4001 were originally obtained from ATCC and kindly provided by Prof. Helder Santos (University of Helsinki, Finland). Primary prostate carcinoma PPC-1 cell line was kindly provided by Prof. Tambet Teesalu (University of Tartu, Estonia). All cell lines were cultured in Dulbecco’s Modified Eagle’s GlutaMAX medium (Gibco (Carlsbad, CA, USA)), supplemented with 10,000 U/mL penicillin, 10 mg/mL streptomycin (Gibco), and 10% fetal bovine serum (Gibco). Cell cultures were grown at 37 °C in a humidified atmosphere containing 5% CO2. They were used until the passage of 20.
(§5) The effect of synthesized compounds on cell viability was studied using 3-(4,5-dimethylthiazol-2-yl)-2,5-diphenyltetrazolium bromide (MTT; Sigma-Aldrich Co., St Louis, MO, USA) assay, as described elsewhere. To summarize, the cells were seeded in triplicates in 96-well Corning plates (IGR39, MDA-MB-231, Panc-1 and PPC1: 4 × 10^3 cells/well; HF: 5 × 10^3 cells/well). The cells were treated with 100 μM of tested compounds after 24 h of incubation. After 72 h, the MTT reagent was added and the formazan crystals that had formed were dissolved in DMSO (Sigma-Aldrich Co., St. Louis, MO, USA). The absorbance was determined with a multidetection microplate reader at 570 and 630 nm.
(§6) The compound serial dilutions ranging from 50 µM to 1.56 µM were introduced to the cells. The Hill equation was used to calculate the EC50 value, or the concentration of a compound that results in a 50% reduction in the metabolic activity of cells.

[4] = system: tested cancer cell lines (IGR39, PPC-1, MDA-MB-231, Panc-1); experiment: MTT cell viability assay, statements on the tested cancer cell lines together; type: cell-based, human; details: Homo sapiens; against IGR39 and PPC-1 cell lines
Procedure: as §5, §6

[5] = system: prostate carcinoma PPC-1 cell line; experiment: MTT cell viability assay, prostate carcinoma PPC-1; type: cell-based, human
Excerpt: as §4, §5, §6

[6] = Ferric reducing antioxidant power (FRAP) assay
Excerpt: The ferric reducing antioxidant power (FRAP) assay was used to evaluate the antioxidant potential of new compounds 2–17. Antioxidant assays are based on determining reduction power reactions (e.g., reduction Fe^3+ to Fe^2+) or scavenging free radicals (DPPH, ABTS). The FRAP assay is based on the method of single electron transfer (SET), measuring the reduction in the complex of ferric ions (Fe^3+)-ligand to the blue ferrous complex (Fe^2+). This method uses 2,4,6-tripyridyl-s-triazine (TPTZ) as the linking ligand to the iron. The antioxidant activity of the synthesized compounds was compared with that of the well-known antioxidant protocatechuic acid. […] PCA is a building block for pharmaceuticals and is widely used to produce many medicinal products such as veratridine (sodium channel inactivation inhibitor), erlotinib (antineoplastic), Picatin II (treatment of hepatitis B), itopride hydrochloride (gastrointestinal motility drug). PCA can also cause the induction of apoptosis of human leukemia cells. Moreover, the antioxidant activity of PCA is based on the reduction in free radical formation via the up-regulation of genes encoding enzymes with neutralizing activities.
Antioxidant activity was determined as an increase in absorbance at 593 nm, and the results were expressed as of Fe^2+ μmol/L and in relation to antioxidants, and protocatechuic acid, as positive control. The FRAP reagent contained 2.5 mL of 10 mM TPTZ solution in 40 mM HCl as well as 2.5 mL of FeCl3 (20 mM) and 25 mL of acetate buffer (0.3 M, pH = 3.6). Then, 100 μL of analyzed compounds (20 mM) were mixed with 3 mL of the FRAP reagent. The absorbance of the reaction mixture was measured spectrophotometrically at 593 nm using a UV-1280 UV-VIS spectrophotometer (Shimadzu Corporation, Kyoto, Japan). To compose the calibration curve, five concentrations of FeSO4·7H2O (5, 10, 15, 20, 25 μM) were used, and the absorbance was measured as a sample solution.

PPC-1 cell migration = experiment: 'Wound healing' migration assay, PPC-1; type: cell-based, human; details: 72 h of incubation
Procedure: (§7) Cancer cells were seeded at a density of 6 × 10^4 cells/well in 24-well plates. After 48 h of incubation, a 100 µL pipette tip was used to make the scratch in each well. Following a single PBS wash, the fresh medium containing 2 and 5 µM of compounds 5, 6, 13, and 14 was added to the cells. As a negative control, medium containing 0.1% DMSO was employed.

IGR39 cell migration = experiment: 'Wound healing' migration assay, IGR39; type: cell-based, human; details: 48 h of incubation; control 'wound' completely closed
Procedure: as §7

Panc-1 cell migration = experiment: 'Wound healing' migration assay, Panc-1; type: cell-based, human; details: 72 h of incubation
Procedure: as §7

[7] = system: human triple-negative breast cancer MDA-MB-231 cell line; experiment: MTT cell viability assay, MDA-MB-231; type: cell-based; details: 72 h; for EC50: Homo sapiens, MDA-MB-231
Excerpt: as §4, §5, §6

[8] = system: human pancreatic carcinoma Panc-1 cell line; experiment: MTT cell viability assay, Panc-1; type: cell-based
Excerpt: as §4, §5, §6

melanoma cell = system: melanoma cell; set-up: method as in PMID 21700700; details: cited from earlier work

| Compound | melting point [°C] | EC50 [4] [µM] | EC50 [3] [µM] | EC50 [7] [µM] | effect on spheroid growth / size [1] | effect on spheroid growth / size [2] | effect on spheroid viability compared to the control ([2]; WST-1, end of experiment) | effect on cell viability compared among the cell lines [3] | selectivity towards cancer cells compared to fibroblasts [3] | other results |
| --- | --- | --- | --- | --- | --- | --- | --- | --- | --- | --- |
| O=C(NN=Cc1c[nH]c2ccccc12)C1CC(=O)N(c2ccc(Nc3ccccc3)cc2)C1 (stereo not drawn) [Compound 14, N′-((1H-indol-3-yl)methylene)-5-oxo-1-(4-(phenylamino)phenyl)pyrrolidine-3-carbohydrazide] | 238 to 239 | 2.5 to 20.2 | 10.4 ± 1.35 | 19.8 ± 1.86 | slightly reduced the growth | became somewhat larger | – | strongest effect on melanoma cells | – | – |
| CN(C)/N=N/c1[nH]cnc1C(N)=O [dacarbazine] | – | – | – | – | – | – | – | – | – | concentration that inhibits melanoma cell proliferation (melanoma cell): 25 to 100 µM |

More lines, main results first:

| melting point [°C] | EC50 [4] [µM] | EC50 [3] [µM] | EC50 [7] [µM] | Compound | effect on spheroid growth / size [1] | effect on spheroid growth / size [2] | effect on spheroid viability compared to the control ([2]; WST-1, end of experiment) | effect on cell viability compared among the cell lines [3] | selectivity towards cancer cells compared to fibroblasts [3] | other results |
| --- | --- | --- | --- | --- | --- | --- | --- | --- | --- | --- |
| 223 to 224 | 2.5 to 20.2 | – | – | O=C(NN=Cc1cc(Cl)ccc1O)C1CC(=O)N(c2ccc(Nc3ccccc3)cc2)C1 (stereo not drawn) [Compound 5, N′-(5-chloro-2-hydroxybenzylidene)-5-oxo-1-(4-(phenylamino)phenyl)pyrrolidine-3-carbohydrazide] | did not affect spheroid growth | did not affect spheroid growth | statistically significant effect | strongest effect on melanoma cells | – | spheroid cell viability (reduced up to) ([2]; WST-1, end of experiment): ~ 75%; selectivity towards cancer cells compared to fibroblasts ([5]; prostate carcinoma vs fibroblasts): 3.6 |
| 220 to 221 | 2.5 to 20.2 | – | – | O=C(NN=Cc1ccc(Cl)c(Cl)c1)C1CC(=O)N(c2ccc(Nc3ccccc3)cc2)C1 (stereo not drawn) [Compound 6, N′-(3,4-dichlorobenzylidene)-5-oxo-1-(4-(phenylamino)phenyl)pyrrolidine-3-carbohydrazide] | – | – | statistically significant effect | strongest effect on melanoma cells | 2.8 | reducing power activity compared to the control antioxidant ([6]; vs protocatechuic acid): higher than those of known antioxidants used as the controls; effect on cell migration (PPC-1 cell migration; higher concentration (5 µM)): inhibited |
| 235 to 236 | 2.5 to 20.2 | 2.5 ± 0.46 | 5.1 ± 0.8 | O=C(NN=Cc1ccc([N+](=O)[O-])s1)C1CC(=O)N(c2ccc(Nc3ccccc3)cc2)C1 (stereo not drawn) [Compound 13, N′-((5-nitrothiophen-2-yl)methylene)-5-oxo-1-(4-(phenylamino)phenyl)pyrrolidine-3-carbohydrazide] | – | – | statistically significant effect | strongest effect on melanoma cells | 2.8 | 'wound' area (IGR39 cell migration): 15.8 ± 8.8%; FRAP reducing power (Fe^2+) ([6]; absorbance at 593 nm): 103.95 µmol/L; 'wound' area compared to the control (times larger) (Panc-1 cell migration): 7.5 times; 'wound' area compared to the control (times larger) (PPC-1 cell migration): ~ 24 times; cell viability compared to the control (inhibited up to) ([7]; 100 µM): ~ 9%; cell viability compared to the control (inhibited up to) ([8]; 100 µM, 72 h, MTT): ~ 9%; EC50 ([8]; Homo sapiens, MTT, 72 h, Panc-1): 5.77 ± 0.8 µM; selectivity towards cancer cells compared to fibroblasts ([8]; Panc-1 vs fibroblasts): 1.2; EC50 ([5]; Homo sapiens, MTT, 72 h, PPC-1): 3.63 ± 0.45 µM |
